Laboratory results from PMC10610885, “Discovery of an Insect Neuroactive Helix Ring Peptide from Ant Venom” (Toxins, 2023).
Read-outs that look alike come from different tables or passages of the source.

Legend:
blowfly Lucilia caesar [1] = test: Blowfly paralytic assay, intrathoracic injection; type: in vivo; settings: L. caesar; for PD50 [1 h]: 1 h post injection, mean ± SEM, n = 3, ten flies per dose
Experimental: (§1) In this study, we screened the neurotoxic activity of U11 when injected into a panel of beneficial and pest insects such as honeybees, blowflies, and aphids. Blowfly is a dipteran model commonly used to evaluate the insecticidal potency of venom peptides. Blowfly maggots (Lucilia caesar) were bought from a fisheries shop (Euroloisir81, Lescure-d’Albigeois, France) and were kept at 25 °C until hatching. Flies 1–4 days post hatching were used for the injection assays. Honeybee (Apis mellifera) is a model of choice to assess the impact of a toxin against beneficial insects such as pollinators. The honeybee colonies used in this study belong to the Buckfast breed and were maintained at the University Champollion campus in Albi. Adult foraging honeybees were individually isolated in plastic vials and immediately injected. Assays on blowflies and honeybees were conducted by lateral intrathoracic injection of peptides dissolved in ultra-pure water at several concentrations (from 0.005 to 0.52 mM for L. caesar and from 0.002 to 1 mM for A. mellifera) by using a 1.0 mL Hamilton Syringe (1000 Series Gastight, Hamilton Company, Reno, NV, USA) with a fixed 25 gauge needle attached to an Arnold hand microapplicator (Burkard Manufacturing Co., Ltd., Rickmansworth, UK). Each fly/bee received 1 µL of peptide solution and was individually housed in a 2 mL tube with 3 µL of 5% glucose solution. Paralytic activity was monitored at 1 h and 24 h after injection while lethality was monitored only at 24 h. […] Ten flies/honeybees were used for each toxicity experiment and for the appropriate control (ultrapure water solution), and the experiment was repeated three times for each dose. Dose–response data were analyzed as detailed by Touchard et al.. The pea aphids A. pisum used in this study were obtained from a long-established parthenogenetic clone (LL01). Aphids were kept on young broad bean plants (Vicia faba, L. cv. Aquadulce) at 21 °C with a photoperiod of 16 h light 8 h dark, allowing us to maintain them as strictly parthenogenetic matrilines. To produce synchronized apterous nymphs, winged adults were allowed to reproduce on seedlings for 24 h. The resulting synchronized nymphs were reared for 9 days on plants before the beginning of the experiments (peptide injection or feeding). For the injection experiment, we used four groups of synchronized A9 aphids (30 per group): (i) non-injected aphids, (ii) aphids injected with sterilized ultra-pure water (injection control), (iii) aphids injected with PA1b inactivated peptide (non-toxic peptide injection control), and (iv) aphids injected with the U11 peptide. […] Aphids were monitored daily for 7 days after injection and their survival and behavior regularly checked, following the protocol developed by Ribeiro Lopes et al.. […]

[2] = test system: honeybees (Apis mellifera); test: Honeybee paralytic assay, intrathoracic injection; type: in vivo; settings: A. mellifera, n = 3
Experimental: In this study, we screened the neurotoxic activity of U11 when injected into a panel of beneficial and pest insects such as honeybees, blowflies, and aphids. Blowfly is a dipteran model commonly used to evaluate the insecticidal potency of venom peptides. Blowfly maggots (Lucilia caesar) were bought from a fisheries shop (Euroloisir81, Lescure-d’Albigeois, France) and were kept at 25 °C until hatching. Flies 1–4 days post hatching were used for the injection assays. Honeybee (Apis mellifera) is a model of choice to assess the impact of a toxin against beneficial insects such as pollinators. The honeybee colonies used in this study belong to the Buckfast breed and were maintained at the University Champollion campus in Albi. Adult foraging honeybees were individually isolated in plastic vials and immediately injected. […] Paralytic activity was monitored at 1 h and 24 h after injection while lethality was monitored only at 24 h. […] Dose–response data were analyzed as detailed by Touchard et al.. […] Aphids were monitored daily for 7 days after injection and their survival and behavior regularly checked, following the protocol developed by Ribeiro Lopes et al.. […]

[3] = test system: aphids (Acyrthosiphon pisum); test: Aphid intra-abdominal injection assay; type: in vivo; settings: A. pisum
Experimental: as §1, with “(LL01).” for “(LL01). Aphids were kept on young broad bean plants (Vicia faba, L. cv. Aquadulce) at 21 °C with a photoperiod of 16 h light 8 h dark, allowing us to maintain them as strictly parthenogenetic matrilines. To produce synchronized apterous nymphs, winged adults were allowed to reproduce on seedlings for 24 h. The resulting synchronized nymphs were reared for 9 days on plants before the beginning of the experiments (peptide injection or feeding). For the injection experiment, we used four groups of synchronized A9 aphids (30 per group): (i) non-injected aphids, (ii) aphids injected with sterilized ultra-pure water (injection control), (iii) aphids injected with PA1b inactivated peptide (non-toxic peptide injection control), and (iv) aphids injected with the U11 peptide.”

L. caesar = test: Ingestion assay on blowflies; type: in vivo, Lucilia caesar
Experimental: (§2) We used the same protocol used in Guo et al. for the ingestion assays with flies (L. caesar and D. melanogaster). Briefly, flies were placed in 2 mL microcentrifuge tubes right after hatching and were individually fed with 3 µL of 50% w/v sucrose solution (negative control) or sucrose solution containing the toxin. They were then kept at 25 °C. Mortality was recorded at 1, 2, 4, 24, 48, and 72 h after exposure to the tested compound. The surviving flies received 3 µL of 50% w/v sucrose solution without peptide each day until the end of the experiment. For each test, ten flies were used per treatment and each of them was replicated three times.

D. melanogaster = test: Ingestion assay on Drosophila; type: in vivo; settings: fed at high doses in 50% sucrose (Figure S2)
Experimental: as §2

A. mellifera = test: Ingestion assay on honeybees; type: in vivo, Apis mellifera; settings: force fed 5 µL sucrose solution with 8 mg/mL (110 nmol/g bee)
Experimental: The ingestion assays on honeybees were conducted by placing bees in 850 mL plastic storage boxes with 2 mL microcentrifuge tubes filled with 50% w/v sucrose solution and previously drilled for bee access. The boxes were kept at 25 °C in the dark and the bees were allowed to feed ad libitum on the sucrose solution. For each test, ten bees were used per treatment, and each of them was replicated three times. Lethality was recorded at 1, 2, 4, 24, and 48 h after exposure to U11 peptide.
For oral toxicity assays, insects were starved for 2 h prior testing. Bees were individually force fed with 5 µL of 50% w/v sucrose solution (negative control), or sucrose solution containing the toxin (8 mg/mL–110 nmol/g bee).

A. pisum = test: Feeding experiment on aphids; type: in vivo, Acyrthosiphon pisum; settings: artificial diet with 500 μg/mL and 1 mg/mL, seven days
Experimental: For the feeding experiments on aphids, one-day-old aphids (corresponding to the first-instar nymphs N1) were placed for seven days in feeding chambers on 48 μL of a nutritive artificial diet specifically developed for A. pisum feeding, and development was completed with or without the peptide U11. The diets were changed after three days to avoid contamination. Ten N1 were deposited in the feeding chamber and three replicates were performed for each bioassay. Aphids’ mortality was assessed every day and compared between the different diets using a GLM linear regression model after observation of the residuals with a significance level of 5% on the R Studio software. Survival of aphids on two diets, completed, respectively, with U11 at 500 μg/mL and 1 mg/mL, was followed during seven days.

Sitophilus oryzae = test: Weevil toxicity test by ingestion; type: in vivo; settings: S. oryzae, 800 μg/g of feed, two weeks
Experimental: S. oryzae toxicity tests were performed with the WAA42 strain as described previously. Briefly, the insects used for the bioassays were adults 2 to 3 weeks of age collected in one week experimental cohorts and placed in batches of 30 individuals on feed pellets containing the synthetic U11 tested in a whole grain-based diet. The tested concentration of the U11 was 800 μg/g of the feed. Bioactivity was assessed by daily insect survival during the first two weeks of contact with the test diet (27.5 °C, 70% room humidity) and by standard survival analysis.

[4] = test system: S2 Drosophila embryonic cell line; test: CCK-8 cytotoxicity assay; type: cell-based
Experimental: (§3) The embryonic S2 Drosophila cell line (Thermofisher, Waltham, MA, USA) was maintained in Schneider’s insect medium (Sigma-Aldrich, Saint Louis, MO, USA) complemented with 10% heat-inactivated fetal bovine serum (FBS) (Sigma-Aldrich) and 1% Penicillin/Streptomycin (Sigma-Aldrich) at 25 °C without CO2 on TC-treated support (Corning®, Glendale, AZ, USA). The FBS was heat inactivated at 60 °C for 45 min. The cells were passaged every two days at about 90% confluence.
(§4) The CCK-8 (BosterBio, Pleasanton, CA, USA) and LDH (Dojindo, Rockville, MD, USA) assay kits were used to assess the cellular viability and mortality, with densities of 2 × 10^5 cells/mL and 6 × 10^5 cells/mL, respectively. Briefly, 100 µL of S2 cells at the appropriate densities were seeded in 96-well TC-treated plates and incubated for 24 h at 25 °C. […] Lysis Buffer, Triton 0.1%, and culture medium were used for controls. Viability and mortality cell assays were realized separately and in triplicates according to manufacturer’s instructions. The absorbances were measured using a BioTek Cytation 1 microplate reader (Agilent, Santa Clara, CA, USA) (i.e., 450 nm and 490 nm for CCK-8 and LDH assays, respectively). The percentages of living or dead cells were then calculated according to manufacturer’s recommendations.

[5] = test system: S2 Drosophila embryonic cell line; test: LDH cytotoxicity assay; type: cell-based; settings: S2 cells, 5 and 50 µM, 1 h and 24 h of incubation
Experimental: as §3, §4

S2 cells [6] = test: Membrane potential recorded by DiBAC4(3); type: cell-based, Drosophila; settings: 10 µM, KCl 50 mM
Experimental: as §3
Variations of membrane potential were assessed using the fluorescent dye bis-(1,3-dibutybarbituric acid) (DiBAC4(3)) (Thermofisher) using a IX73 fluorescence microscope (Olympus, Japan). Then, 6 × 10^5 S2 cells were plated on 0.01% Poly-L-Lysine (Sigma-Aldrich) coated glass-bottom Petri dishes and allowed to adhere for 24 h before experiments. […] Baseline was recorded for 1 min before addition of KCl (50 Mm final) to achieve membrane depolarization. The results are presented as transformed data to obtain the relative fluorescence to the time of addition of the stimulus, according to the equation: Fx = Ft/F0, where Ft represents the fluorescent value at a specific time point and F0 represents the mean basal fluorescent value. To compare the different conditions, areas under the curve (AUC) after KCl addition were calculated (between 60 and 300 s).

S2 cells [7] = test: Intracellular Ca2+ mobilization, Fluo-4/AM probe; type: cell-based, Drosophila; settings: 10 µM, 1 h preincubation, thapsigargin 2 µM then CaCl2 1.8 mM
Experimental: as §3
The [Ca^2+]i mobilization was measured with the Fluo-4/AM probe using the imaging reader Cytation 1 (BioTek, Agilent). Then, 6 × 10^5 S2 cells/mL were plated on glass-bottom Petri dishes and allowed to adhere for 24 h before experiments. Cells are incubated with 2 µM of Fluo-4/AM in cell culture medium with 2.5 mM probenecid for 1 h at 25 °C with 10 µM of U11 peptide. Then, cells were rinsed twice in Ca^2+-free buffer containing (in mM) 120 NaCl, 5 KCl, 4 MgCl2, 32.2 Sucrose, 10 HEPES, 0.1 EGTA, 2.5 probenecide (pH 7.2), incubated in Ca^2+-free buffer, and processed for measurement of cytoplasmic Ca^2+ concentration. […] Cell fluorescence was analyzed with CALIMA [59] […] Changes in the Ca^2+ cytosolic concentration were calculated from changes of fluorescence relative to time 0 (F = Ft/Ft0 (fluorescence at time = t/time = 0)).

blowfly Lucilia caesar [8] = settings: L. caesar, 1 h post injection; cited from earlier work
Experimental: Table 2 Neuroactivity of ant venom peptides on blowfly species (Lucilia spp.) ranked by PD50 values 1 h post injection. | column: PD50 [1 h] *

[9] = cited from earlier work
Experimental: Table 2 Neuroactivity of ant venom peptides on blowfly species (Lucilia spp.) ranked by PD50 values 1 h post injection. | column: Cytotoxicity

U11-MYRTX-Tb1a
paralysis of flies 1 h after injection (screen) (blowfly Lucilia caesar [1]; intrathoracic injection of one high dose per peptide (Table 1: U8 54, U10 28, U11 27, U13 45 nmol. g^−1), 1 h, ten flies per replicate, three replicates): paralysis of all flies
PD50 [1 h] (blowfly Lucilia caesar [1]; intrathoracic injection): 1.78 ± 0.12 nmol/g
PD50 [1 h] (blowfly Lucilia caesar [1]; intrathoracic injection, listed as U11-Tb1a): 1.8 ± 0.1 nmol/g
PD50 24 h post injection (blowfly Lucilia caesar [1]; intrathoracic injection, 24 h post injection, n = 3): 2.67 ± 0.13 nmol/g
PD50 1 h post injection ([2]; 1 h post injection): 1.36 ± 0.08 nmol/g
PD50 24 h post injection ([2]; 24 h post injection): 1.11 ± 0.09 nmol/g
effect on aphid fitness ([3]; injection 3.4 nmol. g^−1, monitored over 7 days (Figure S1)): weak effect
aphids affected 24 h post injection ([3]; intra-abdominal injection, 3.4 nmol. g^−1 (46 nL of 0.25 mM), 24 h): 6.6%
paralytic effect on aphids by injection ([3]; intra-abdominal injection, 3.4 nmol. g^−1, 24 h): weak paralytic effect
toxicity by ingestion (L. caesar; fed at high doses in 50% sucrose (Figure S2)): active by ingestion
blowflies affected 24 h post ingestion (L. caesar; ingestion, 8 mg/mL (350 nmol. g^−1), 24 h): 60%
toxicity by ingestion (D. melanogaster): active by ingestion
toxicity by ingestion (A. mellifera): unaffected
toxicity by ingestion (A. pisum): unaffected
toxicity by ingestion (Sitophilus oryzae): unaffected
cytotoxicity, CCK-8 assay ([4]; S2 cells, 5 and 50 µM, 1 h and 24 h of incubation): not cytotoxic
Cytotoxicity ([4]; Table 2, this study: CCK-8 and LDH assays on S2 cells): No
cytotoxicity, LDH assay [5]: not cytotoxic
depolarization-induced increase in fluorescence intensity, less than in the control condition (S2 cells [6]; 30 min, DiBAC4(3), NMDG buffer): 33%
AUC of relative fluorescence after KCl application (S2 cells [6]; 60-300 s, mean ± SEM of n = 220 cells (n = 3), control 464 ± 35): 312 ± 23
calcium mobilization (Tg response and calcium influx) (S2 cells [7]): No effect

bicarinalin [M-Tb1a]
PD50 [1 h] (blowfly Lucilia caesar [8]): 12.0 ± 1.0 nmol/g
Cytotoxicity [9]: Yes
